According to patent publication US20040023909A1, “Process for preventing or reducing undesirable immunological effects to infectious agents in subjects” (Enzo Therapeutics, Inc, priority 1997, published 2004):

System: U937 cells
Assay: Delivery of labeled BSA to cells (fluorescent microscope)
Assay type: cell-based
Settings: for Cells displaying fluorescense: overnight at 37° C.
Method: U937 cells were grown to approximately 10^6/ml and centrifuged, washed in growth medium (RPMI), suspended in 3.5 ml of RPMI, and 0.8 ml was placed in each of four 35 mm wells. BSA-BF and BSA-F, each at a concentration of 20 mg/ml, were added to the four wells together with 200 ul of RPMI as follows:
The cell suspensions were incubated overnight at 37° C. One ml of cell suspension was placed in 2.0 ml of RPMI and centrifuged at 1000 rpm for 5 minutes. The supernatants were decanted and the cells were resuspended in 200 ul of RPMI. Samples of each cell suspension were placed on a microscope slide and examined using a fluorescent microscope.

| Substance | Cells displaying fluorescense (20 ul of 20 mg/ml) | Cells displaying fluorescense (50 ul of 20 mg/ml) | Localisation of fluorescense in cells undergoing mitosis |
| --- | --- | --- | --- |
| BSA-F: Bovine Serum Albumin labeled with fluourescein alone [reference compound] | < 5% | < 5% |  |
| BSA-BF: Bovine Serum Albumin labeled by conjugation with both biotin and fluorescein | Approximately 40% | Approximately 40% | bright fluorescense that was confined to the nuclei |
